Assay: Morphology and size distribution by SEM
Assay type: physicochemical
Settings: cryomilled at −196° C.
Description: For morphology and size distribution analysis, microspheres were coated with 40 nm of gold using a sputter coater (Desk II, Denton Vacuum Inc., Hill, N.J., USA) for 120 seconds. Secondary electron micrographs were taken by a Hitachi S-3200N Variable Pressure SEM (Hitachi High-Technologies Corp., Tokyo, Japan). The applied accelerating voltage was 15 kV. For size distribution measurements, the diameter of at least 500 particles was measured and analyzed with ImageJ software (see, e.g., C. A. Schneider, W. S. Rasband, K. W. Eliceiri, NIH Image to ImageJ: 25 years of image analysis, Nature Methods. 9 (2012) 671-675). For cross-sectional images, the microspheres were cut using a razor-blade on a glass slide prior to coating with gold for the SEM analysis.

particle dimensions after micronization: < 25 μm
Compound: CC(=O)N[C@@H](C(=O)O)C(C)(C)SN=O [SNAP, S-nitroso-N-acetyl-D-penicillamine]

From patent publication US11439609B2, “Nitric oxide releasing PLGA microspheres for biomedical applications” (THE REGENTS OF THE UNIVERSITY OF MICHIGAN, priority 2015, dated 2022)
